This passage reports class results from patent US20050197350A1, “Novel quinoline, tetrahydroquinazoline, and pyrimidine derivatives and methods of treatment related to the use thereof” (TAISHO PHARMACEUTICAL CO., LTD., priority 2003, published 2005).

The subject of one test is MCH receptors. Description: MCH receptor activity class (method not given).
Conditions: not given
Turning to `Cc1cc(N(C)C)nc(N[C@H]2CC[C@@H](C(=O)NCc3cc(F)ccc3F)CC2)n1` [Example 2583, cis-N-(2,5-difluorobenzyl)-4-{[4-(dimethylamino)-6-methylpyrimidin-2-yl]amino}cyclohexanecarboxamide], the class is recorded as 1.
As to `Cc1cccc(OCC(=O)N[C@H]2CC[C@@H](Nc3cc(C)c4ccccc4n3)CC2)c1` [Example 2556, 2-(3-methylphenoxy)-N-{cis-4-[(4-methylquinolin-2-yl)amino]cyclohexyl}acetamide], the class came to 1.

Staying with this test, now noted: MCH receptor activity class 1-3 (percent of control at 10^-7 M or IC50).
For the compound `CC(C)c1cccc(C(C)C)c1NC(=O)NC[C@H]1CC[C@@H](Nc2cc(N(C)C)c3ccccc3n2)CC1` [compound 2396], the class is on record as 1 (Class 1: The value of percent of control at 10^−7 M was less than 40% or the value of IC50 was less than 50 nM.).
Same read-out and setting: the value for `CC(C)c1ccccc1NC(=O)NC[C@H]1CC[C@@H](Nc2cc(N(C)C)c3ccccc3n2)CC1` [compound 2380] was 3 (Class 3 The value of percent of control at 10^−7 M was more than 60% or the value of IC50 was more than 200 nM.).

The test is the same for the next values; noted with them: MCH receptor; class by percent of control at 10^-7 M or IC50.
Regarding `CN(C)c1nc(N[C@H]2CC[C@@H](NC(=O)NC3c4ccccc4-c4ccccc43)CC2)nc2c1CCCC2` [compound 1905], the class is recorded as 3 (Class 3 The value of percent of control at 10^−7 M was more than 60% or the value of IC50 was more than 200 nM.).
With `COc1cccc(CNC(=S)N[C@H]2CC[C@@H](Nc3nc4c(c(N(C)C)n3)CCCC4)CC2)c1` [compound 2044], the class was 3 (Class 3 The value of percent of control at 10^−7 M was more than 60% or the value of IC50 was more than 200 nM.).
Still for that read-out and setting: the value for `Cc1ccc(C(=O)N[C@H]2CC[C@@H](Nc3cc(N(C)C)c4ccccc4n3)CC2)c(F)c1F` [compound 60] was 3 (Class 3 The value of percent of control at 10^−7 M was more than 60% or the value of IC50 was more than 200 nM.); that for `CN(C)c1cc(N[C@H]2CC[C@@H](CNC(=O)c3cc(F)cc(F)c3)CC2)nc2ccccc12` [compound 161, N-[(cis-4-{[4-(dimethylamino)quinolin-2-yl]amino}cyclohexyl)methyl]-3,5-difluorobenzamide] was 3 (Class 3 The value of percent of control at 10^−7 M was more than 60% or the value of IC50 was more than 200 nM.); that for `CN(C)c1nc(N[C@H]2CC[C@@H](NC(=S)Nc3c(Cl)cccc3Cl)CC2)nc2c1CCCC2` [compound 1938] was 3 (Class 3 The value of percent of control at 10^−7 M was more than 60% or the value of IC50 was more than 200 nM.).
Still for that read-out and setting: the value for `CCCNC(=S)N[C@H]1CC[C@@H](Nc2nc3c(c(N(C)C)n2)CCCC3)CC1` [compound 1956] was 3 (Class 3 The value of percent of control at 10^−7 M was more than 60% or the value of IC50 was more than 200 nM.).
On to `Cc1ccc(C)c(NC(=S)N[C@H]2CC[C@@H](Nc3nc4c(c(N(C)C)n3)CCCC4)CC2)c1` [compound 2059], for which the class is listed as 3 (Class 3 The value of percent of control at 10^−7 M was more than 60% or the value of IC50 was more than 200 nM.).
The same measure, in the same setting: the value for `CCCCCC(=O)N[C@H]1CC[C@@H](Nc2cc(N(C)C)c3ccccc3n2)CC1` [compound 40] was 3 (Class 3 The value of percent of control at 10^−7 M was more than 60% or the value of IC50 was more than 200 nM.); that for `CC(C)S(=O)(=O)c1csc(C(=O)N[C@H]2CC[C@@H](Nc3cc(N(C)C)c4ccccc4n3)CC2)c1Cl` [compound 101] was 3 (Class 3 The value of percent of control at 10^−7 M was more than 60% or the value of IC50 was more than 200 nM.); that for `CN(C)c1ccc(/N=N/c2ccc(NC(=S)N[C@H]3CC[C@@H](Nc4nc5c(c(N(C)C)n4)CCCC5)CC3)cc2)cc1` [compound 2077] was 3 (Class 3 The value of percent of control at 10^−7 M was more than 60% or the value of IC50 was more than 200 nM.).

The test is the same for the next values; noted with them: activity class 1-3: percent of control at 10^-7 M or IC50.
Take `CN(C)c1ccnc(N[C@H]2CC[C@@H](NCCOc3ccc(Br)cc3)CC2)n1` [compound 1518]: the class is reported as 3 (Class 3 The value of percent of control at 10^−7 M was more than 60% or the value of IC50 was more than 200 nM.).
The same measure, in the same setting: the value for `COC(=O)N[C@H]1CC[C@@H](Nc2cc(N(C)C)c3ccccc3n2)CC1` [compound 1555] was 3 (Class 3 The value of percent of control at 10^−7 M was more than 60% or the value of IC50 was more than 200 nM.); that for `CC(C)[C@@H]1CC[C@@H](C)CC1OC(=O)NC[C@H]1CC[C@@H](Nc2nc3c(c(N(C)C)n2)CCCC3)CC1` (some centres unmarked) [compound 1613] was 3 (Class 3 The value of percent of control at 10^−7 M was more than 60% or the value of IC50 was more than 200 nM.).

Staying with this test, now noted: activity class per percent of control at 10^-7 M or IC50.
Consider `CN(C)c1cc(N[C@H]2CC[C@@H](CNCc3c[nH]c4ccc(Br)cc34)CC2)nc2ccccc12` [compound 1130], for which the class was 2 (Class 2: The value of percent of control at 10^−7 M was from 40% to 60% or the value of IC′50 was from 50 nM to 200 nM.).
`Cc1cc(C)c2occ(CN[C@H]3CC[C@@H](Nc4cc(N(C)C)c5ccccc5n4)CC3)c(=O)c2c1` [compound 1108]: the class is 3 (Class 3 The value of percent of control at 10^−7 M was more than 60% or the value of IC50 was more than 200 nM.).
The same measure, in the same setting: the value for `CCN(CC)c1ccc(CNC[C@H]2CC[C@@H](Nc3cc(N(C)C)c4ccccc4n3)CC2)cc1` [compound 1150] was 3 (Class 3 The value of percent of control at 10^−7 M was more than 60% or the value of IC50 was more than 200 nM.).

Still in this test, the particulars now being: class by percent of control at 10^-7 M or IC50.
Regarding `CN(C)c1ccnc(N[C@H]2CC[C@@H](NC(=O)Cc3cccc(Oc4ccccc4)c3)CC2)n1` [compound 867], the class is recorded as 3 (Class 3 The value of percent of control at 10^−7 M was more than 60% or the value of IC50 was more than 200 nM.).
Take `CN(C)c1ccnc(N[C@H]2CC[C@@H](NCc3c[nH]nc3-c3ccc(C(F)(F)F)cc3)CC2)n1` [compound 1218]: the class is recorded as 3 (Class 3 The value of percent of control at 10^−7 M was more than 60% or the value of IC50 was more than 200 nM.).
On the same count and under the same terms, the value for `Cc1cc(CN[C@H]2CC[C@@H](Nc3nccc(N(C)C)n3)CC2)cc(C)c1O` [compound 1223] was 3 (Class 3 The value of percent of control at 10^−7 M was more than 60% or the value of IC50 was more than 200 nM.).
As to `CN(C)c1cc(N[C@H]2CC[C@@H](NC(=O)/C=C/c3ccccc3[N+](=O)[O-])CC2)nc2ccccc12` [compound 726], the class is 3 (Class 3 The value of percent of control at 10^−7 M was more than 60% or the value of IC50 was more than 200 nM.).
As for `Cc1cc(CN[C@H]2CC[C@@H](Nc3nc4c(c(N(C)C)n3)CCCC4)CC2)cc(C)c1O` [compound 1344], the class is listed as 3 (Class 3 The value of percent of control at 10^−7 M was more than 60% or the value of IC50 was more than 200 nM.).
On the same count and under the same terms, the value for `CN(C)c1cc(N[C@H]2CC[C@@H](CNCc3ccsc3)CC2)nc2ccccc12` [compound 1183] was 3 (Class 3 The value of percent of control at 10^−7 M was more than 60% or the value of IC50 was more than 200 nM.); that for `Cc1ccc(F)c(NC(=O)N[C@H]2CC[C@@H](Nc3nc4c(c(N(C)C)n3)CCCC4)CC2)c1` [compound 1860] was 3 (Class 3 The value of percent of control at 10^−7 M was more than 60% or the value of IC50 was more than 200 nM.).
For the compound `COc1cc(OC)c(NC(=S)N[C@H]2CC[C@@H](Nc3nc4c(c(N(C)C)n3)CCCC4)CC2)cc1Cl` [compound 1777], the class was 1 (Class 1: The value of percent of control at 10^−7 M was less than 40% or the value of IC50 was less than 50 nM.).
Still for that read-out and setting: the value for `CCOc1ccccc1CN[C@H]1CC[C@@H](Nc2nc3c(c(N(C)C)n2)CCCC3)CC1` [compound 1327] was 3 (Class 3 The value of percent of control at 10^−7 M was more than 60% or the value of IC50 was more than 200 nM.).
The same measure, in the same setting: the value for `CN(C)c1cc(N[C@H]2CC[C@@H](CNCc3cc(Cl)ccc3Cl)CC2)nc2ccccc12` [compound 1473] was 3 (Class 3 The value of percent of control at 10^−7 M was more than 60% or the value of IC50 was more than 200 nM.).
Regarding `CN(C)c1ccnc(N[C@H]2CC[C@@H](CNCc3ccc(N(C)CCC#N)cc3)CC2)n1` [compound 1323], the class is listed as 2 (Class 2: The value of percent of control at 10^−7 M was from 40% to 60% or the value of IC′50 was from 50 nM to 200 nM.).
Same read-out and setting: the value for `CN(C)c1nc(N[C@H]2CC[C@@H](NC(=O)Nc3ccccc3Cc3ccccc3)CC2)nc2c1CCCC2` [compound 1851] was 3 (Class 3 The value of percent of control at 10^−7 M was more than 60% or the value of IC50 was more than 200 nM.); that for `Cc1oc(-c2ccccc2)cc1CNC[C@H]1CC[C@@H](Nc2nccc(N(C)C)n2)CC1` [compound 1313] was 3 (Class 3 The value of percent of control at 10^−7 M was more than 60% or the value of IC50 was more than 200 nM.).

The test is the same for the next values; noted with them: class by percent of control at 10^−7 M or IC50.
As to `Cc1cc(N(C)C)nc(N[C@H]2CC[C@@H](CNC(=O)c3ccc(C#N)cc3)CC2)n1` [compound 2761], the class is listed as 3 (Class 3 The value of percent of control at 10^−7 M was more than 60% or the value of IC50 was more than 200 nM.).
Same read-out and setting: the value for `Cc1cnc(NC[C@H]2CC[C@@H](NC(=O)c3cc(Cl)cc(Cl)c3)CC2)nc1N(C)C` [compound 2728, 3,5-dichloro-N-[cis-4-({[4-(dimethylamino)-5-methylpyrimidin-2-yl]amino}methyl)cyclohexyl]benzamide] was 2 (Class 2: The value of percent of control at 10^−7 M was from 40% to 60% or the value of IC′50 was from 50 nM to 200 nM.).
On the same count and under the same terms, the value for `COc1ccc(C(=O)N[C@H]2CC[C@@H](CNc3nc(C)cc(N(C)C)n3)CC2)cc1` [compound 2735] was 3 (Class 3 The value of percent of control at 10^−7 M was more than 60% or the value of IC50 was more than 200 nM.); that for `Cc1cnc(NC[C@H]2CC[C@@H](NC(=O)c3ccc(C(F)(F)F)c(F)c3)CC2)nc1N(C)C` [compound 2727] was 3 (Class 3 The value of percent of control at 10^−7 M was more than 60% or the value of IC50 was more than 200 nM.).
Turning to `COc1ccccc1C(=O)N[C@H]1CC[C@@H](Nc2ncc(C)c(N(C)C)n2)CC1` [compound 2910], the class was 3 (Class 3 The value of percent of control at 10^−7 M was more than 60% or the value of IC50 was more than 200 nM.).
